Source: US20260116920A1, “HUMAN TRANSFERRIN RECEPTOR BINDING PEPTIDE” (PEPTIDREAM INC., priority 2021, published 2026)
Starred links: 1 amine or outer side, 2 acyl side, 3 side chain; linkers in the order of their positions; H or OH if unused. Positions of bridges follow the written chain, without caps; N, C: chain ends. Non-standard residues stand in square brackets, D forms with d. Residues, ends and D or L forms follow the SMILES beside them. Groups on a side chain read outwards from the residue. *: point of attachment. Trp(1-CH2COOH) = N[C@@H](Cc1cn(CC(=O)O)c2ccccc12)C(=O)O; Nle(6-morpholino) = N[C@@H](CCCCN1CCOCC1)C(=O)O; Phe(3-COOH) = N[C@@H](Cc1cccc(C(=O)O)c1)C(=O)O; NMePhe(3-Cl) = CN[C@@H](Cc1cccc(Cl)c1)C(=O)O; Piperazinyl(4-CH2COOH) = O=C(O)CN1CCN(*)CC1; 3Pal(6-NH2) = Nc1ccc(C[C@H](N)C(=O)O)cn1; NMeY = CN[C@@H](Cc1ccc(O)cc1)C(=O)O; NH(CH2CH2O)4Me = COCCOCCOCCOCCN*; 4Pal = N[C@@H](Cc1ccncc1)C(=O)O; PEG4 = NCCOCCOCCOCCOCCC(=O)O; Carboxymethyl = O=C(O)C*; CO = O=C([*:1])[*:2]; X4 = COCC(COC)N*

biological target: T1, human transferrin receptor (hTfR) (Homo sapiens, UniProt P02786); assay: Evaluation of molecular interaction between transferrin receptor (hTfR) and peptide using surface plasmon resonance (SPR); type: binding; conditions: surface plasmon resonance, binding to hTfR; KD class symbol; read-out: SPR (KD value)
T1 construct: made in house
T1 sequence (P02786 89-760 limits assumed): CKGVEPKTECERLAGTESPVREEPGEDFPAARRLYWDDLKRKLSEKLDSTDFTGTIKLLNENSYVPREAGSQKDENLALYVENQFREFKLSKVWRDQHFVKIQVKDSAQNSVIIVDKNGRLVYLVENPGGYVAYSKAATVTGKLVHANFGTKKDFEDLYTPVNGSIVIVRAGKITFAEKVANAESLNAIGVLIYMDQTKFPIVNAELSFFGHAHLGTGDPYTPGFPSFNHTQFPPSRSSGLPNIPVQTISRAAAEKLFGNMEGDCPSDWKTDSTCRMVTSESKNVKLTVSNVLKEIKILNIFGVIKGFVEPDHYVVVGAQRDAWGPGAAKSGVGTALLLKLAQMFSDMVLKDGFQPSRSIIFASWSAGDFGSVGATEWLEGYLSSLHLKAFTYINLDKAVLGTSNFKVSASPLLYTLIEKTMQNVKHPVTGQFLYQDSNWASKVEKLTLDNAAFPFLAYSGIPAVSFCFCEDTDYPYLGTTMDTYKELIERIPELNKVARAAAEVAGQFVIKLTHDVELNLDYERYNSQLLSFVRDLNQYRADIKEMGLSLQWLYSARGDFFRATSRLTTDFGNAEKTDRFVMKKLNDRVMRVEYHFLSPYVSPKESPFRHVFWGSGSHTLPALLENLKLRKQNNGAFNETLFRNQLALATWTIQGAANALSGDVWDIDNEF
Summary of the method: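 Recombinant human TfR dimer (0.5 μM) was captured on a Ni-charged NTA chip and amine-coupled with EDC/NHS, then ethanolamine-capped. Peptides at 5–100 nM in HEPES pH 8.0 buffer with 150 mM NaCl, 0.05% Tween 20, 0.1% BSA and 1.0% DMSO were run by single-cycle kinetics; KD came from least-squares curve fitting.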

SMILES | Kd [nM]
CC[C@H](C)[C@@H]1NC(=O)[C@H](Cc2ccc(OCC(=O)O)cc2)NC(=O)[C@H](Cc2ccc(O)cc2)NC(=O)[C@H](CC(N)=O)NC(=O)[C@H](Cc2c[nH]c3ccccc23)NC(=O)[C@H](C(C)C)NC(=O)[C@H](Cc2cccc(Cl)c2)N(C)C(=O)[C@H](C(C)C)NC(=O)[C@H](C)NC(=O)CSC[C@@H](C(=O)NCCOCCOCCOCCOCCC(N)=O)NC(=O)[C@H](Cc2ccc(O)cc2)N(C)C(=O)[C@H](Cc2ccccc2)NC(=O)[C@H](CCCCN2CCOCC2)NC(=O)[C@H](CCC(=O)NCCOCCOCCOCCOC)NC(=O)[C@H]([C@@H](C)CC)NC1=O [compound 120] | 1 to 100
CC[C@H](C)[C@@H]1NC(=O)[C@H](Cc2ccc(OCC(=O)O)cc2)NC(=O)[C@H](Cc2ccc(O)cc2)NC(=O)[C@H](CC(N)=O)NC(=O)[C@H](Cc2c[nH]c3ccccc23)NC(=O)[C@H](C(C)C)NC(=O)[C@H](Cc2cccc(Cl)c2)N(C)C(=O)[C@H](C(C)C)NC(=O)[C@H](C)NC(=O)CSC[C@@H](C(=O)NCCOCCOCCOCCOCCC(N)=O)NC(=O)[C@H](Cc2ccc(O)cc2)N(C)C(=O)[C@H](Cc2ccccc2)NC(=O)[C@H](CCCCN)NC(=O)[C@H](CCC(=O)NCCOCCOCCOCCOC)NC(=O)[C@H]([C@@H](C)CC)NC1=O [compound 121] ({CH2CO}-AV[NMePhe(3-Cl)]VWNYY(Carboxymethyl)IIE(NH(CH2CH2O)4Me)KF[NMeY]C[PEG4]-NH2; thioether N-15) | 1 to 100
CC[C@H](C)[C@@H]1NC(=O)[C@H](Cc2ccc(OCC(=O)O)cc2)NC(=O)[C@H](Cc2ccc(O)cc2)NC(=O)[C@H](CC(N)=O)NC(=O)[C@H](Cc2c[nH]c3ccccc23)NC(=O)[C@H](C(C)C)NC(=O)[C@H](Cc2cccc(Cl)c2)N(C)C(=O)[C@H](C(C)C)NC(=O)[C@H](C)NC(=O)CSC[C@@H](C(=O)NCCOCCOCCOCCOCCC(N)=O)NC(=O)[C@H](Cc2ccc(O)cc2)N(C)C(=O)[C@H](Cc2ccccc2)NC(=O)[C@H](CCCCN(C)C)NC(=O)[C@H](CCC(=O)NCCOCCOCCOCCOC)NC(=O)[C@H]([C@@H](C)CC)NC1=O [compound 122] | 1 to 100
CC[C@H](C)[C@@H]1NC(=O)[C@H](Cc2ccc(OCC(=O)O)cc2)NC(=O)[C@H](Cc2ccc(O)cc2)NC(=O)[C@H](CC(N)=O)NC(=O)[C@H](Cc2c[nH]c3ccccc23)NC(=O)[C@H](C(C)C)NC(=O)[C@H](Cc2cccc(Cl)c2)N(C)C(=O)[C@H](C(C)C)NC(=O)[C@H](C)NC(=O)CSC[C@@H](C(=O)NCCOCCOCCOCCOCCC(N)=O)NC(=O)[C@H](Cc2ccc(O)cc2)N(C)C(=O)[C@H](Cc2ccccc2)NC(=O)[C@H](CCC(N)=O)NC(=O)[C@H](CCC(=O)NCCOCCOCCOCCOC)NC(=O)[C@H]([C@@H](C)CC)NC1=O [compound 123] ({CH2CO}-AV[NMePhe(3-Cl)]VWNYY(Carboxymethyl)IIE(NH(CH2CH2O)4Me)QF[NMeY]C[PEG4]-NH2; thioether N-15) | 1 to 100
CC[C@H](C)[C@@H]1NC(=O)[C@H](Cc2ccc(OCC(=O)O)cc2)NC(=O)[C@H](Cc2ccc(O)cc2)NC(=O)[C@H](CC(N)=O)NC(=O)[C@H](Cc2c[nH]c3ccccc23)NC(=O)[C@H](C(C)C)NC(=O)[C@H](Cc2cccc(Cl)c2)N(C)C(=O)[C@H](C(C)C)NC(=O)[C@H](C)NC(=O)CSC[C@@H](C(=O)NCCOCCOCCOCCOCCC(N)=O)NC(=O)[C@H](Cc2ccc(O)cc2)N(C)C(=O)[C@H](CCC(=O)NCCOCCOCCOCCOC)NC(=O)[C@H](CCCNC(=N)N)NC(=O)[C@H](CCC(=O)NCCOCCOCCOCCOC)NC(=O)[C@H]([C@@H](C)CC)NC1=O [compound 124] ({CH2CO}-AV[NMePhe(3-Cl)]VWNYY(Carboxymethyl)IIE(NH(CH2CH2O)4Me)RE(NH(CH2CH2O)4Me)[NMeY]C[PEG4]-NH2; thioether N-15) | 1 to 100
CC[C@H](C)[C@@H]1NC(=O)[C@H](Cc2ccc(OCC(=O)O)cc2)NC(=O)[C@H](Cc2ccc(O)cc2)NC(=O)[C@H](CC(N)=O)NC(=O)[C@H](Cc2c[nH]c3ccccc23)NC(=O)[C@H](C(C)C)NC(=O)[C@H](Cc2cccc(Cl)c2)N(C)C(=O)[C@H](C(C)C)NC(=O)[C@H](C)NC(=O)CSC[C@@H](C(=O)NCC(=O)N[C@H](CO)C(=O)N[C@H](CO)C(=O)N[C@H](CO)C(=O)N[C@H](CO)C(=O)N[C@H](CO)C(N)=O)NC(=O)[C@H](Cc2ccc(O)cc2)N(C)C(=O)[C@H](CCC(=O)NCCOCCOCCOCCOC)NC(=O)[C@H](CCCNC(=N)N)NC(=O)[C@H](CCC(=O)NCCOCCOCCOCCOC)NC(=O)[C@H]([C@@H](C)CC)NC1=O [compound 125] | 1 to 100
CC[C@H](C)[C@@H]1NC(=O)[C@H](Cc2ccc(OCC(=O)O)cc2)NC(=O)[C@H](Cc2ccc(O)cc2)NC(=O)[C@H](CC(N)=O)NC(=O)[C@H](Cc2c[nH]c3ccccc23)NC(=O)[C@H](C(C)C)NC(=O)[C@H](Cc2cccc(Cl)c2)N(C)C(=O)[C@H](C(C)C)NC(=O)[C@H](C)NC(=O)CSC[C@@H](C(=O)NCCOCCOCCOCCOCCC(N)=O)NC(=O)[C@H](Cc2ccc(O)cc2)N(C)C(=O)[C@H](Cc2cccc(C(=O)NCCOCCOCCOCCOC)c2)NC(=O)[C@H](CCCNC(=N)N)NC(=O)[C@H](CCC(=O)NCCOCCOCCOCCOC)NC(=O)[C@H]([C@@H](C)CC)NC1=O [compound 126] | 1 to 100

The next lines start with the values.

Kd [nM] | SMILES
< 1 | CC[C@H](C)[C@@H]1NC(=O)[C@H](Cc2ccc(OCC(=O)O)cc2)NC(=O)[C@H](Cc2ccc(O)cc2)NC(=O)[C@H](CC(N)=O)NC(=O)[C@H](Cc2c[nH]c3ccccc23)NC(=O)[C@H](C(C)C)NC(=O)[C@H](Cc2cccc(Cl)c2)N(C)C(=O)[C@H](C(C)C)NC(=O)[C@H](C)NC(=O)CSC[C@@H](C(=O)NCCOCCOCCOCCOCCC(N)=O)NC(=O)[C@H](Cc2ccc(O)cc2)N(C)C(=O)[C@H](Cc2cccc(C(=O)O)c2)NC(=O)[C@H](CCCNC(=N)N)NC(=O)[C@H](CCC(=O)NC(COC)COC)NC(=O)[C@H]([C@@H](C)CC)NC1=O [compound 114] ({CH2CO}-AV[NMePhe(3-Cl)]VWNYY(Carboxymethyl)IIE(X4)R[Phe(3-COOH)][NMeY]C[PEG4]-NH2; thioether N-15)
1 to 100 | CC[C@H](C)[C@@H]1NC(=O)[C@H](Cc2ccc(OCC(=O)O)cc2)NC(=O)[C@H](Cc2ccc(O)cc2)NC(=O)[C@H](CC(N)=O)NC(=O)[C@H](Cc2cn(CC(=O)O)c3ccccc23)NC(=O)[C@H](C(C)C)NC(=O)[C@H](Cc2cccc(Cl)c2)N(C)C(=O)[C@H](C(C)C)NC(=O)[C@H](C)NC(=O)CSC[C@@H](C(=O)NCCOCCOCCOCCOCCC(N)=O)NC(=O)[C@H](Cc2ccc(O)cc2)N(C)C(=O)[C@H](Cc2ccccc2)NC(=O)[C@H](CCCCNC(=O)N2CCN(CC(=O)O)CC2)NC(=O)[C@H](CCC(=O)NCCOCCOCCOCCOC)NC(=O)[C@H]([C@@H](C)CC)NC1=O [compound 115] ({CH2CO}-AV[NMePhe(3-Cl)]V[Trp(1-CH2COOH)]NYY(Carboxymethyl)IIE(NH(CH2CH2O)4Me)K([CO-Piperazinyl(4-CH2COOH)])F[NMeY]C[PEG4]-NH2; thioether N-15)
1 to 100 | CC[C@H](C)[C@@H]1NC(=O)[C@H](Cc2ccc(OCC(=O)O)cc2)NC(=O)[C@H](Cc2ccc(O)cc2)NC(=O)[C@H](CC(N)=O)NC(=O)[C@H](Cc2c[nH]c3ccccc23)NC(=O)[C@H](C(C)C)NC(=O)[C@H](Cc2cccc(Cl)c2)N(C)C(=O)[C@H](C(C)C)NC(=O)[C@H](C)NC(=O)CSC[C@@H](C(=O)NCCOCCOCCOCCOCCC(N)=O)NC(=O)[C@H](Cc2ccc(O)cc2)N(C)C(=O)[C@H](Cc2ccccc2)NC(=O)[C@H](CCCCNC(=O)N2CCN(CC(=O)O)CC2)NC(=O)[C@H](CCC(=O)NCCOCCOCCOCCOC)NC(=O)[C@H]([C@@H](C)CC)NC1=O [compound 116] ({CH2CO}-AV[NMePhe(3-Cl)]VWNYY(Carboxymethyl)IIE(NH(CH2CH2O)4Me)K([CO-Piperazinyl(4-CH2COOH)])F[NMeY]C[PEG4]-NH2; thioether N-15)
1 to 100 | CC[C@H](C)[C@@H]1NC(=O)[C@H](Cc2ccc(OCC(=O)O)cc2)NC(=O)[C@H](Cc2ccc(N)nc2)NC(=O)[C@H](CC(N)=O)NC(=O)[C@H](Cc2cn(CC(=O)O)c3ccccc23)NC(=O)[C@H](C(C)C)NC(=O)[C@H](Cc2cccc(Cl)c2)N(C)C(=O)[C@H](C(C)C)NC(=O)[C@H](C)NC(=O)CSC[C@@H](C(=O)NCCOCCOCCOCCOCCC(N)=O)NC(=O)[C@H](Cc2ccc(O)cc2)N(C)C(=O)[C@H](Cc2ccncc2)NC(=O)[C@H](CCCNC(=N)N)NC(=O)[C@H](CCC(=O)NCCOCCOCCOCCOC)NC(=O)[C@H]([C@@H](C)CC)NC1=O [compound 117]
1 to 100 | CC[C@H](C)[C@@H]1NC(=O)[C@H](Cc2ccc(OCC(=O)O)cc2)NC(=O)[C@H](Cc2ccc(N)nc2)NC(=O)[C@H](CC(N)=O)NC(=O)[C@H](Cc2c[nH]c3ccccc23)NC(=O)[C@H](C(C)C)NC(=O)[C@H](Cc2cccc(Cl)c2)N(C)C(=O)[C@H](C(C)C)NC(=O)[C@H](C)NC(=O)CSC[C@@H](C(=O)NCCOCCOCCOCCOCCC(N)=O)NC(=O)[C@H](Cc2ccc(O)cc2)N(C)C(=O)[C@H](Cc2ccncc2)NC(=O)[C@H](CCCCNC(=O)N2CCN(CC(=O)O)CC2)NC(=O)[C@H](CCC(=O)NCCOCCOCCOCCOC)NC(=O)[C@H]([C@@H](C)CC)NC1=O [compound 118] ({CH2CO}-AV[NMePhe(3-Cl)]VWN[3Pal(6-NH2)]Y(Carboxymethyl)IIE(NH(CH2CH2O)4Me)K([CO-Piperazinyl(4-CH2COOH)])[4Pal][NMeY]C[PEG4]-NH2; thioether N-15)
< 1 | CC[C@H](C)[C@@H]1NC(=O)[C@H](Cc2ccc(OCC(=O)O)cc2)NC(=O)[C@H](Cc2ccc(O)cc2)NC(=O)[C@H](CC(N)=O)NC(=O)[C@H](Cc2cn(CC(=O)O)c3ccccc23)NC(=O)[C@H](C(C)C)NC(=O)[C@H](Cc2cccc(Cl)c2)N(C)C(=O)[C@H](C(C)C)NC(=O)[C@H](C)NC(=O)CSC[C@@H](C(=O)NCCOCCOCCOCCOCCC(N)=O)NC(=O)[C@H](Cc2ccc(O)cc2)N(C)C(=O)[C@H](Cc2ccccc2)NC(=O)[C@H](CCCCN2CCOCC2)NC(=O)[C@H](CCC(=O)NCCOCCOCCOCCOC)NC(=O)[C@H]([C@@H](C)CC)NC1=O [compound 119] ({CH2CO}-AV[NMePhe(3-Cl)]V[Trp(1-CH2COOH)]NYY(Carboxymethyl)IIE(NH(CH2CH2O)4Me)[Nle(6-morpholino)]F[NMeY]C[PEG4]-NH2; thioether N-15)
